Reference: ChEMBL document CHEMBL4622876, “Total Synthesis and Antimalarial Activity of Dominicin, a Cyclic Octapeptide from a Marine Sponge” (J Nat Prod, 2020)
Where a SMILES comes first, the peptide text is derived from it.

Experiments:
[1] = tested on: Plasmodium falciparum; assay: Antiplasmodial activity against D-sorbitol synchronized ring stage Plasmodium falciparum 3D7 after 72 hrs; assay type: functional, organism-based; conditions: 3D7, 72 h
[2] = tested on: Plasmodium falciparum; assay: Antiplasmodial activity against D-sorbitol synchronized ring stage chloroquine/mefloquine/pyrimethamine-resistant Plasmodium falciparum Dd2 after 72 hrs; assay type: functional, organism-based; conditions: Dd2, 72 h
[3] = tested on: Erythrocyte; assay: Hemolytic activity in human RBC assessed as release of hemoglobin at 0.78 nM to 26 uM incubated for 72 hrs; assay type: ADME, cell-based; conditions: 0.00078 µM
[4] = tested on: Plasmodium falciparum; assay: Antiplasmodial activity against Plasmodium falciparum; assay type: functional, organism-based

SMILES	IC50 [1]	IC50 [2]	Activity [3]	IC50 [4]
CC[C@H](C)[C@@H]1NC(=O)[C@H]([C@@H](C)CC)NC(=O)[C@H]([C@@H](C)CC)NC(=O)[C@@H]2CCCN2C(=O)[C@H]([C@@H](C)O)NC(=O)[C@@H]2CCCN2C(=O)[C@@H]2CCCN2C(=O)[C@H](CC(C)C)NC1=O (cyclo(IIILPPTP))	3.6 µM	1800 nM	Non-Toxic	–
C[C@@H](O)[C@@H]1NC(=O)CNC(=O)[C@H](Cc2ccccc2)NC(=O)[C@H](Cc2ccccc2)NC(=O)CNC(=O)[C@H](Cc2ccccc2)NC(=O)[C@H](Cc2ccccc2)NC1=O (cyclo(FFGFFGT))	–	–	–	2200 nM
